Results on seven compounds are retold here after patent US9090628B2, “Benzoxazepin compounds selective for PI3K P110 delta and methods of use” (GENENTECH, INC., priority 2011, dated 2015).

In general, IC50 refers to the midpoint of a concentration-inhibition curve. Read a high IC50 as a need for much substance.

Assay [1] deals with p110 delta (Homo sapiens (Human), UniProt O00329). Briefly: PI3K isoform inhibition assay, p110 delta (fluorescence polarization displacement). Type of assay: biochemical.
Assay [2] addresses p110 alpha (Homo sapiens (Human), UniProt P42336). Briefly: PI3K isoform inhibition assay, p110 alpha (for alpha/delta selectivity). Conditions: ratio of biochemical IC50 values. In a few lines: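 Fluorescence polarization displacement of a fluorescent PIP3 probe from GRP-1 detector by PI3K-formed PIP3; p110α/p85α at 40 ng/mL with 10 μM PIP2 substrate.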
The subject of assay [3] is CD69 production by B lymphocytes in human whole blood activated with anti-human IgM. The assay can be described thus: CD69 Whole Blood Assay. Conditions: Lymphocyte, anti-IgM stimulated, CD69 positive of CD20 positive cells. Type of assay: cell-based. The text has this: There is good evidence that B-cells play a key role in the pathogenesis of autoimmune and/or inflammatory disease. Protein-based therapeutics that deplete B cells such as Rituxan are effective against autoantibody-driven inflammatory diseases such as rheumatoid arthritis (Rastetter et al. (2004) Annu Rev Med 55:477). CD69 is the early activation marker in leukocytes including T cells, thymocytes, B cells, NK cells, neutrophils, and eosinophils. The CD69 human whole blood assay (Example 903) determines the ability of compounds to inhibit the production of CD69 by B lymphocytes in human whole blood activated by crosslinking surface IgM with goat F(ab′)2 anti-human IgM.
Human blood is obtained from healthy volunteers, with the following restrictions: 1 week drug-free, non-smokers. Blood (approximately 20 mls to test 8 compounds) is collected by venipuncture into Vacutainer tubes with sodium heparin.
Solutions of Formula I compounds at 1000 or 2000 μM in PBS (20×), are diluted by three-fold serial dilutions in 10% DMSO in PBS for a nine point dose-response curve. An aliquot of 5.5 μl of each compound is added in duplicate to a 2 ml 96-well plate; 5.5 μl of 10% DMSO in PBS is added as control and no-stimulus wells. Human whole blood—HWB (100 μl) is added to each well. After mixing the plates are incubated at 37° C., 5% CO2, 100% humidity for 30 minutes. Goat F(ab′)2 anti-human IgM (10 μl of a 500 μg/ml solution, 50 μg/ml final) is added to each well (except the no-stimulus wells) with mixing and the plates are incubated for an additional 20 hours. At the end of the 20 hour incubation, samples are incubated with fluorescent labeled antibodies for 30 minutes, at 37° C., 5% CO2, 100% humidity. Include induced control, unstained and single stains for compensation adjustments and initial voltage settings. Samples are then lysed with Pharmingen Lyse according to the manufacturer's instructions. Samples are then transferred to a 96 well plate suitable to be run on the AMS 96 well system on the BD Calibur FACs machine. Data acquired and Mean Fluorescence Intensity values were obtained using Cell Quest Software. Results are initially analyzed by FACS analysis software (Flow Jo).

p110 delta, sequence (O00329 whole entry, canonical isoform): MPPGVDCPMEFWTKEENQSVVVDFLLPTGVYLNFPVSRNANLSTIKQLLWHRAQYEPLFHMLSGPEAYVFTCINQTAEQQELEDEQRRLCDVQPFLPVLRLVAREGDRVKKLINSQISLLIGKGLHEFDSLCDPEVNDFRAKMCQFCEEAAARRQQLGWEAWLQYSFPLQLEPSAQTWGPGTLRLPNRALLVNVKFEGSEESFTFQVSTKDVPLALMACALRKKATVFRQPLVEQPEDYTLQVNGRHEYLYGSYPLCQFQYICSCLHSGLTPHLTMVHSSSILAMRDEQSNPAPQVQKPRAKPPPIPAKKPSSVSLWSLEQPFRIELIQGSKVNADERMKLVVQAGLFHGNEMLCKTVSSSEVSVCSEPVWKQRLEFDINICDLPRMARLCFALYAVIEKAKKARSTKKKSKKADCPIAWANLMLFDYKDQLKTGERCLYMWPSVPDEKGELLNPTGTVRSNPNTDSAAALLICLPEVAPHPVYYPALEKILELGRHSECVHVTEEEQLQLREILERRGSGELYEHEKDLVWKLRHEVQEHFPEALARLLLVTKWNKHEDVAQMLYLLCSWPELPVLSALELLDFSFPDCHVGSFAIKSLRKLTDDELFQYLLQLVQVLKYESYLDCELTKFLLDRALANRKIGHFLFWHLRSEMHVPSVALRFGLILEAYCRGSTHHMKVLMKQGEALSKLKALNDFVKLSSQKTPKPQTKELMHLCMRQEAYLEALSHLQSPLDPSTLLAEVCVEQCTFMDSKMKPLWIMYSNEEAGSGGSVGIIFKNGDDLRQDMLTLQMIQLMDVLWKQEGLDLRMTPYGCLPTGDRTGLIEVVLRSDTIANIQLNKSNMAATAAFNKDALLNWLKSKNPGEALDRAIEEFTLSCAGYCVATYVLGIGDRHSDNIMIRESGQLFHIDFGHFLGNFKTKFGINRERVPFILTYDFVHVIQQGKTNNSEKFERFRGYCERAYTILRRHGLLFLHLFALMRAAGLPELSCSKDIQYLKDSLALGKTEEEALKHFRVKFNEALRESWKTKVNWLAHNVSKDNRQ
p110 delta, sequence (P27986 whole entry partner, canonical isoform): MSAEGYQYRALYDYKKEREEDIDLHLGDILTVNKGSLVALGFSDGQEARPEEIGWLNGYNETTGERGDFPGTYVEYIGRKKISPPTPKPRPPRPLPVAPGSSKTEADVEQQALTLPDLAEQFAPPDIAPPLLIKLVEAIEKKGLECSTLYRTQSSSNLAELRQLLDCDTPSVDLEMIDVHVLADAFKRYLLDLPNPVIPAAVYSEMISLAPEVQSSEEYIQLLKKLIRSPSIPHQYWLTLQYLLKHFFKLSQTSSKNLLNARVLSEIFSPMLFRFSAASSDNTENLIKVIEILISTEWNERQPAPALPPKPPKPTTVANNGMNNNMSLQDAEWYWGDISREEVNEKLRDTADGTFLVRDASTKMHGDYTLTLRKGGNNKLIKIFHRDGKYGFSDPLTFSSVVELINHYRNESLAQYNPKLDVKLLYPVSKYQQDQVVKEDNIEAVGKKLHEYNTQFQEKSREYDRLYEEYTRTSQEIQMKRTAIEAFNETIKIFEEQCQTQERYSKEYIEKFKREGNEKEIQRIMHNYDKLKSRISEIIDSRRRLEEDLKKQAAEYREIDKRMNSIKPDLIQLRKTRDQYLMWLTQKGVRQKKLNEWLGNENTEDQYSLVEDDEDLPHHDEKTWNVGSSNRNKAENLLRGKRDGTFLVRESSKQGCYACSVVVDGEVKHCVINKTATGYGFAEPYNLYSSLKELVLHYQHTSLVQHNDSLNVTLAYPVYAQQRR
p110 alpha, sequence (P42336 whole entry, canonical isoform): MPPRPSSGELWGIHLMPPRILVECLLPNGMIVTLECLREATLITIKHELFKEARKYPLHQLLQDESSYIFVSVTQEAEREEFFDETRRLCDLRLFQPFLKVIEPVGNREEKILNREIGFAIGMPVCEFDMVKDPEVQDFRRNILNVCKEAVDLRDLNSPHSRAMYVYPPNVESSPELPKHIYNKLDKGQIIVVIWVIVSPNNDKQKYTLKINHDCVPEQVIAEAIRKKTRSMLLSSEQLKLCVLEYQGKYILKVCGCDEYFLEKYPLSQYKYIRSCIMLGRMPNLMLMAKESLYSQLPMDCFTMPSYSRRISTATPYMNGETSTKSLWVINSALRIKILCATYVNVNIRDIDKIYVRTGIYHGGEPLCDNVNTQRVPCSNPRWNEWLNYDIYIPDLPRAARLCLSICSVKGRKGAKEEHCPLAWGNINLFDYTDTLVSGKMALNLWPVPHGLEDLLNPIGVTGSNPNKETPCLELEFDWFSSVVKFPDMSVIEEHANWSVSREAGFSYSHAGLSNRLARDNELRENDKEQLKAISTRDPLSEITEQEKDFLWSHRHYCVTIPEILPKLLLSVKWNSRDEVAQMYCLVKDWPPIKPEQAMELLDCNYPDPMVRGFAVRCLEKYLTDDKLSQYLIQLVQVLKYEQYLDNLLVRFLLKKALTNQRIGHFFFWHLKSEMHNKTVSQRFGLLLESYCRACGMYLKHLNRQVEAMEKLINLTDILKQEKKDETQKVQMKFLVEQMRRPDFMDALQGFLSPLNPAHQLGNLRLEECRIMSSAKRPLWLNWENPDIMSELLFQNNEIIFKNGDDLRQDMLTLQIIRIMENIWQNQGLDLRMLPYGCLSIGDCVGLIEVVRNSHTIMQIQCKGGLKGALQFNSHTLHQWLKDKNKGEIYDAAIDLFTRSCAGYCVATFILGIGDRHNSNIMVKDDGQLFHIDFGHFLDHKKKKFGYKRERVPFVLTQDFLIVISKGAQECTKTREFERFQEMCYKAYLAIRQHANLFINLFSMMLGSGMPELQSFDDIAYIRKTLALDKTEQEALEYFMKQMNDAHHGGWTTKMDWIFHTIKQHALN
p110 alpha, sequence (P27986 whole entry partner, canonical isoform): as the sequence (P27986 whole entry partner, canonical isoform) above

In the case of `CC(C)n1ncnc1-c1cn2c(n1)-c1cc(CN3CCN(C(C)(C)C)CC3)ccc1OCC2` [Example 108, 10-((4-tert-butylpiperazin-1-yl)methyl)-2-(1-isopropyl-1H-1,2,4-triazol-5-yl)-5,6-dihydrobenzo[f]imidazo[1,2-d][1,4]oxazepine], the IC50 in assay [1] worked out at 2.46 nM; in assay [3], 40.5 nM. Further, the “IC50 p110 alpha/IC50 p110 delta” value in assay [2] was 21.8.

As to `CC(C)n1ncnc1-c1cn2c(n1)-c1cc(C(=O)N3CCN(C(C)(C)C)CC3)ccc1OCC2` [Example 110, (4-tert-butylpiperazin-1-yl)(2-(1-isopropyl-1H-1,2,4-triazol-5-yl)-5,6-dihydrobenzo[f]imidazo[1,2-d][1,4]oxazepin-10-yl)methanone], the 50% inhibitory concentration (IC50) came out at 0.919 nM in assay [1] and 129 nM in assay [3]. Besides, the “IC50 p110 alpha/IC50 p110 delta” value in assay [2] stood at 27.1.

Compound `CC(C)n1ncnc1-c1cn2c(n1)-c1cnc(N3CCCC3C3CCN(C)CC3)cc1OCC2` (stereo not shown) [Example 115, 2-(1-isopropyl-1H-1,2,4-triazol-5-yl)-9-(2-(1-methylpiperidin-4-yl)pyrrolidin-1-yl)-5,6-dihydroimidazo[1,2-d]pyrido[3,4-f][1,4]oxazepine] registered an IC50 in assay [3] of 38.1 nM.

Take `CC(Oc1ccc2c(c1)OCCn1cc(-c3ncnn3C(C)C)nc1-2)C1CCN(C(C)C)CC1` (stereo not shown) [Example 143, 2-(1-isopropyl-1H-1,2,4-triazol-5-yl)-9-(1-(1-isopropylpiperidin-4-yl)ethoxy)-5,6-dihydrobenzo[f]imidazo[1,2-d][1,4]oxazepine]: the IC50 in assay [1] amounted to 0.442 nM; in assay [3], 58.2 nM. Further, the “IC50 p110 alpha/IC50 p110 delta” value in assay [2] is recorded as 14.4.

In assay [3], `CC(C)n1ncnc1-c1cn2c(n1)-c1ccc(-c3ccnn3C3CCN(C)CC3)cc1OCC2` [Example 160, 2-(1-isopropyl-1H-1,2,4-triazol-5-yl)-9-(1-(1-methylpiperidin-4-yl)-1H-pyrazol-5-yl)-5,6-dihydrobenzo[f]imidazo[1,2-d][1,4]oxazepine] gave an IC50 of 45.9 nM.

Take `Cc1nc(-c2cn3c(n2)-c2ccc(-c4cnn(C)c4C4CCCN(C(C)(C)CO)C4)cc2OCC3)n(C(C)C)n1` (stereo not shown) [Example 248, 2-(3-(4-(2-(1-isopropyl-3-methyl-1H-1,2,4-triazol-5-yl)-5,6-dihydrobenzo[f]imidazo[1,2-d][1,4]oxazepin-9-yl)-1-methyl-1H-pyrazol-5-yl)piperidin-1-yl)-2-methylpropan-1-ol]: the midpoint of inhibition in assay [3], the IC50, lay at 49.7 nM.

In the case of `Cc1nc(-c2cn3c(n2)-c2ccc(N4CCC[C@@H]4C4CCN(C(C)C)CC4)cc2OCC3)n(C(C)C)n1` [Example 263, (R)-2-(1-isopropyl-3-methyl-1H-1,2,4-triazol-5-yl)-9-(2-(1-isopropylpiperidin-4-yl)pyrrolidin-1-yl)-5,6-dihydrobenzo[f]imidazo[1,2-d][1,4]oxazepine], inhibition in assay [3] was half-maximal at 45.8 nM (IC50).
